Measurements: PMC9043391, “Isolation and biological activities of compounds from Rumex vesicarius L. and their use as a component of a synbiotic preparation” (Food Chemistry: X, 2022)
Marks after values point to notes of the source that are not given here. Square brackets hold non-standard residues; d marks the D form. Peptide text beside a SMILES is read from it. * marks the point of attachment. Sta = CC(C)C[C@H](N)[C@@H](O)CC(=O)O; Isovaleryl = CC(C)CC(=O)*

Tests used:
[1] = test system: Escherichia coli Nissle 1917 (EcN); assay: Growth kinetic curves of Escherichia coli Nissle 1917 (OD600, DMFit); type: cell-based; conditions: for Effect on lag phase of EcN compared with control: 2 mg/mL, in words
Protocol: (§1) Escherichia coli K12 (K12) was chosen as a representative enteric species, and E. coli Nissle 1917 (EcN) was chosen as a representative probiotic strain. Both strains were obtained from the bacterial strain collection in Food Microbiology Laboratory (Dairy department, Faculty of Agriculture, Mansoura University, Egypt). An overnight culture of both strains was activated in nutrient broth (NB) (BD Difco™, Bacton, Dickinson and Company Sparks, MD, USA) at 37 °C for 16–18 h. The culture was diluted on test days in buffered peptone water to a final concentration of 1.5 × 10^8 colony forming units (CFU)/mL cell counts were assessed by pour plate method, one mL of a suitable dilution was incubated on nutrient agar at 37 °C for 24 h. colonies were then counted and converted to CFU/mL ([Dawood et al., 2021]).
An aliquot (100 µL) of EcN was inoculated into NB (BD Difco ^TM) and incubated at 37 °C for 24 h. An overnight culture of EcN was further streaked onto nutrient agar and incubated for 48 h at 37 °C. The EcN culture was diluted in sterile saline solution (0.85%) on the day of assay to adjust the final cell count to 1.5 × 10^8 CFU/mL. Bacterial growth was determined in NB supplemented with individual pure compounds (1–8) or extracts (methanol, petroleum ether, and ethyl acetate) at 2 mg/mL. Growth kinetics of EcN were monitored spectrophotometrically by OD600 every of 60 min at 37 °C ([Pacheco-Ordaz et al., 2018]). DMFit ver. 2.1 an Excel add-in was used to determine: doubling time (Td), lag time, maximum growth at the stationary phase (Y max, OD), and specific growth rate (µmax, OD).

[2] = test system: Escherichia coli Nissle 1917 (EcN); assay: Prebiotic index of EcN (CFU on sample vs CFU on glucose); type: cell-based; conditions: 2 mg/mL, 24 h, ratio to growth on 2 mg/mL glucose
Protocol: as §1
Prebiotic index (PI) was estimated as previously described ([Dawood et al., 2021]). E. coli Nissle 1917 was used as the representative probiotic strain. Aliquots containing 10^7 CFU of an overnight culture of EcN were inoculated into separate tubes containing NB. Two mg/mL of extracts or isolated phenolic compounds or 2 mg/mL of glucose as a positive control was added, and growth of EcN was assessed as the number of viable colonies forming units (CFU)/mL after incubation for 24 h using the pour method on nutrient agar, followed by incubation at 37 °C for 24 h. PI is the ratio of growth of EcN in NB supplemented with individual compounds or extracts to growth on glucose. A PI greater than one indicates a positive influence on the growth of EcN. PI was calculated as follows:(1) PI=CFUofEcNinPhenolicCompounds(asprebiotic)/CFUofECNinglucose(ascontrolcarbohydrate)

[3] = biological target: angiotensin-converting enzyme (ACE) (Homo sapiens, UniProt P12821); assay: Angiotensin-converting enzyme inhibitory activity (HHL cleavage, 228 nm); type: biochemical; conditions: whey of yogurt enriched at 2 mg/mL, after 7 days of refrigerated storage; in words
Protocol: Lyophilized aqueous extract (whey) obtained from yogurt enriched with extracts or individual compounds at 2 mg/mL was used. […] The method depends on hipuryl-histdylleucine (HHL) cleavage to hippuric acid by ACE. HHL (3.8 mM) was diluted in 0.1 M borate buffer (200 μL; pH 8.3), including 0.3 M NaCl, then 35 μL of sample solution (2 mg/mL) was added, and the mixture incubated for 10 min at 37 °C. The reaction was initiated by adding 20 μL of ACE solution (0.1 U/mL in borate buffer) and allowed to proceed for 30 min at 37 °C. HCl (250 μL of a 1 M solution) was then added to stop the reaction. […] Subsequently, 1 mL of supernatant (ethyl acetate) was collected in a new tube and placed in boiling water for 30 min to eliminate the solvent. The remaining hippuric acid residue was dissolved in 1 mL of distilled water, and absorbance was measured at 228 nm using distilled water as a blank. All samples were analyzed in triplicate. Captopril (0.008 mg/mL) was used as a positive control, and lyophilized aqueous extract (whey) obtained from plain yogurt was used as a negative control. The calculation of ACE inhibitory activity was determined as follows:(3) ACE inhibition%=[1-(A-C)/(B-D)]×100 where A is absorbance with the sample, HHL, and ACE; B is absorbance with HHL and ACE without sample; C is absorbance with sample and HHL; D is absorbance with HHL without sample and ACE.

[4] = test system: α-amylase; assay: α-amylase inhibition (starch, dinitrosalicylic acid, 540 nm); type: biochemical; conditions: samples at 2 mg/mL; acarbose 5 µg/mL positive control; in words
Protocol: α-amylase inhibition was determined as previously reported ([Hu et al., 2013]). Briefly, 200 µL of 20 mM sodium phosphate buffer (pH 7.0 with 6 mM NaCl), including α-amylase (10 U/mL) and 200 µL of sample (2 mg/mL), was incubated at 37 °C for 45 min. A potato starch solution (400 µL; 0.5%) was added to each sample and incubated at 37 °C in a shaking water bath (100 rpm) for 10 min. The enzymatic reaction was stopped with dinitrosalicylic acid color reagent. Screw cape tubes were transferred to a water bath at 100 °C for 10 min, then cooled to room temperature. Finally, samples were diluted with 3 mL of deionized water (3 mL). Absorbance of diluted reaction mixtures was measured spectrophotometrically at 540 nm (Spectro UV–VIS Auto, UV2602, Labomed, USA). Test and control samples were compared and expressed as percentage inhibition of α-amylase. Acarbose (5 µg/mL) was used as a positive control, and samples in buffer without test compounds or extracts were included as negative controls.

[5] = biological target: pepsin (Homo sapiens, UniProt P0DJD8); assay: Protease (pepsin) inhibition with bovine serum albumin substrate; type: biochemical; conditions: samples at 2 mg/mL; Pepstatin A 0.5 µg/mL positive control; in words
Protocol: Protease used the protocol of [Hu et al. (2013]). Briefly, 100 µL of pepsin solution (1 mg pepsin/1 mL of 0.02 N HCl) was mixed with 0.5 mL of 10 mg/mL bovine serum albumin and 0.5 mL of extracts or pure compounds (2 mg/mL) and incubated for 30 min at 37 °C. TCA (0.9 mL 5%) was added to stop the reaction, followed by centrifugation (4800g, 15 min). Protein concentration in the final supernatant was determined using Coomassie (Bradford) protein assay kits. Pepstatin A (0. 5 µg/mL) was used as a positive control.

[6] = test system: E. coli Nissle 1917 (EcN) versus Escherichia coli K12; assay: Prebiotic activity score (EcN growth relative to enteric E. coli K12, vs glucose); type: cell-based; conditions: EcN vs E. coli K12, 24 h at 37 °C
Protocol: as §1
Log E is log of CFU/mL of K12 at zero time (E0) and 24 h (E24) of culture on glucose and pure compounds. Individual pure compounds or extracts that induce a high value of Pscore improve EcN growth compared with the growth rate of EcN on glucose. Support of K12 growth by pure compounds or extracts theoretically should be low compared to growth of K12 on glucose.

[7] = EcN in nutrient broth supplemented at 2 mg/mL, 37 °C, n = 3

Chain of angiotensin-converting enzyme (ACE) (P12821 30-1306, species assumed): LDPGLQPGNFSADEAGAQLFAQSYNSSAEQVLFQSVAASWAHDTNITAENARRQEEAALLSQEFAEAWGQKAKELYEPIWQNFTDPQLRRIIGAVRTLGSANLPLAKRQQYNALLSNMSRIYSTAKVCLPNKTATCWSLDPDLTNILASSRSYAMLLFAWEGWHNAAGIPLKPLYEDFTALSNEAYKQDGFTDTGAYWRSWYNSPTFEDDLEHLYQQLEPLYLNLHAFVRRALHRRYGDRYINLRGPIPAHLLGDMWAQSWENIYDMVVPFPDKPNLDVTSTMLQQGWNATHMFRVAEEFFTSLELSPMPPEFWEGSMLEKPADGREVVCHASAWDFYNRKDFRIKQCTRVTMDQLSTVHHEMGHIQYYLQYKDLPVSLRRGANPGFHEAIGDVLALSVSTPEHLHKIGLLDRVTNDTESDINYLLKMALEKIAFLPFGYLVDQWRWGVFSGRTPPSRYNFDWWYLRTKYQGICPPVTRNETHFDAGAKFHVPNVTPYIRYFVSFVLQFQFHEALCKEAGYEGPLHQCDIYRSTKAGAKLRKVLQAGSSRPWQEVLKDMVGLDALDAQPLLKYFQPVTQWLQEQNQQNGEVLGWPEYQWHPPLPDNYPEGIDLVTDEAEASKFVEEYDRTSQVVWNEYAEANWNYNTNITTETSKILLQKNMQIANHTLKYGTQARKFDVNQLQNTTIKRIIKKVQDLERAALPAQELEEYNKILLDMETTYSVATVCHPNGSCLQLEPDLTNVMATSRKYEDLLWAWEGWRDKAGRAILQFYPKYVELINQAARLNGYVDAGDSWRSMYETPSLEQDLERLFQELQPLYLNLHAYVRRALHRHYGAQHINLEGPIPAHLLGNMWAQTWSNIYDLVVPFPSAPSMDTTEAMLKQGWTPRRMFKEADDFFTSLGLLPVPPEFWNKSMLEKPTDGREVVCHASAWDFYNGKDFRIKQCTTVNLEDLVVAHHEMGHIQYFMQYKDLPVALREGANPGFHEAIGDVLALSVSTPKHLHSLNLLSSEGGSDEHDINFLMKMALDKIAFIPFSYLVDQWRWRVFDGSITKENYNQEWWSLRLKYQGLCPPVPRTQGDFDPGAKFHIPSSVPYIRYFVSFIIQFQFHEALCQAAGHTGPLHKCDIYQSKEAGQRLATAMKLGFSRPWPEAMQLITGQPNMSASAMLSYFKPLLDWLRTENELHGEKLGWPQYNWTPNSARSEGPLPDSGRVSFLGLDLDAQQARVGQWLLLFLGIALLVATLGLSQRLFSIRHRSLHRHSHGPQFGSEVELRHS
Chain of pepsin (P0DJD8 63-388): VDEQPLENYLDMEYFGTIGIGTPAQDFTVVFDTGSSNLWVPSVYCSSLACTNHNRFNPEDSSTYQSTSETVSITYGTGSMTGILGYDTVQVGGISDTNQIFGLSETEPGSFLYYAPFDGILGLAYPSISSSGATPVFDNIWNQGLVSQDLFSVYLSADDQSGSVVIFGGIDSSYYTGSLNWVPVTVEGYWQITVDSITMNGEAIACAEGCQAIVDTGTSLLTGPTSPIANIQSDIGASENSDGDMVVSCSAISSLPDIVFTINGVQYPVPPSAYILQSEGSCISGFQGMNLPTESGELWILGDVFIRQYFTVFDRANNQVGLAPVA

Compound	Effect on lag phase of EcN compared with control [1]	Lag (min) [1, 7]	Prebiotic index (PI) [2]	also measured
CCO[C@@H]1O[C@H](CO)[C@@H](O)[C@H](O)[C@H]1O [Compound 8, ethyl β-D-glucopyranoside]	significantly (P < 0.05) decreased lag phase	180 ^b min		
Cc1cc(O)c2c(c1)C(=O)c1cc(O)cc(O)c1C2=O [Compound 5, emodin]		240 ^a min	1.14 ± 0.20	ACE inhibitory activity [3]: the lowest inhibitory activity of ACE compared with other compounds
Cc1cc(O)c2c(c1)C(=O)c1cccc(O)c1C2=O [Compound 2, chrysophanol]	significantly (P < 0.05) decreased lag phase	180 ^b min		
COc1cc(O)c2c(c1)C(=O)c1cc(C)cc(O)c1C2=O [Compound 3, physcion]	significantly (P < 0.05) decreased lag phase	180 ^b min		
CC(=O)c1c(C)cc2cccc(O)c2c1O [Compound 1, Nepodin]		240 ^a min	0.94 ± 0.24	ACE inhibitory activity [3]: the highest compared with other isolated compounds
C[C@H]1O[C@H](O[C@H]2[C@H](O)[C@@H](O)[C@@H](O[C@H]3[C@H](O)[C@@H](O)C(O)O[C@@H]3CO)O[C@@H]2CO)[C@H](O)[C@@H](O)[C@@H]1N[C@H]1C=C(CO)[C@@H](O)[C@H](O)[C@H]1O (some centres unmarked) [acarbose, Acarbose]				Inhibition of α-amylase activity [4]: inhibition was greater than for either extracts
CC(C)CC(=O)N[C@H](C(=O)N[C@H](C(=O)N[C@@H](CC(C)C)[C@@H](O)CC(=O)N[C@@H](C)C(=O)N[C@@H](CC(C)C)[C@@H](O)CC(=O)O)C(C)C)C(C)C [Pepstatin, Pepstatin A] (Isovaleryl-VV[Sta]A[Sta]-OH)				Inhibition of pepsin (protease) activity [5]: inhibitory activity greater than for any extracts or isolated compounds
CC(=O)c1c(C)cc2cccc(O[C@@H]3O[C@H](CO)[C@@H](O)[C@H](O)[C@H]3O)c2c1O [Compound 7, 6-methyl-7-acetyl-1,8-dihydroxy naphthalene-1-O-β-D-glucoside]	significantly (P < 0.05) decreased lag phase	180 ^b min		
CC[C@H](CC[C@@H](C)[C@H]1CC[C@H]2[C@@H]3CC=C4C[C@@H](O)CC[C@]4(C)[C@H]3CC[C@]12C)C(C)C [Compound 4, β-sitosterol]	significantly (P < 0.05) decreased lag phase	60 ^c min	3.05 ± 0.47	Td (min), doubling time [1, 7]: 39.71 min; Prebiotic activity score (Pscore) [6]: about 3.02 ± 0.48
CC[C@@H](CCC(C)C1CCC2C3CC=C4C[C@@H](O[C@@H]5O[C@H](CO)[C@@H](O)[C@H](O)[C@H]5O)CC[C@]4(C)C3CC[C@]12C)C(C)C (stereo partly drawn) [Compound 6, β-sitosterol 3-O-β-D-glucoside]	significantly (P < 0.05) decreased lag phase	180 ^b min		
